Assay results published in patent US6608178B1, “5-hydroxytryptophol (5-HTOL) derivatives, antibodies, immunoassays and detection of recent alcohol consumption” (Alco Dia A.B., priority 1996, dated 2003).

Columns and labels:
[1] = tested on: mouse monoclonal anti-5-HTOL antibody; test: Cross reactivity in the competitive immunoassay (labelled conjugate IV vs. anti-5-HTOL antibody); format: binding; conditions: allowable maximal cross reactivity in urine for a 50 nM detection limit of T-5-G; the tested antibody complied with these criteria
Method: Crossreactivity for various substances was measured in the immunoassay method described below with dilutions (in the diluent) of the tested substance used in stead of urine or standard. The concentration range tested for each substance covered three magnitudes and was up to or above one magnitude the highest noted literature value.
Diluent was 0.05 M sodium phosphate buffer, pH 7.0, containing 0.01 M EDTA, 0.1% Tween® and 1% BSA. Decanting solution was Pharmacia decanting suspension without added antibody suspension (Pharmacia Diagnostics AB). μ-agarose particles carried covalently bound sheep-anti-mouse antibody.
Assay Procedure: Pipette to a test tube 50 μl urine or standard, 50 μl tracer solution, 50 μl antibody solution (one of the above-mentioned six selected clones, 5 μg/ml), mix on shaker ˜600 rpm for ˜1 min, allow to stand for 1.5 h at room temperature, 50 μl of the sheep anti-mouse micro-agarose suspension (˜100 mg/ml), mix as above and let stand for another 0.5 h, then add 2 ml decanting solution, centrifuge 10 min at 3000 rpm, with tubes in Pharmacia decanting racks, in the JR-3.2 Rack Rotor, in a Beckman J-6B centrifuge. Within 5 min after completed centrifugation decant the supernatant and let tube racks stand inverted on absorbtive tissue for 2 min. Finally the remaining radioactivity in the tubes is measured in a gamma counter. A standard curve is made with T-5-G in the diluent at 10, 100, 1000 and 10000 nmol/L.

[2] = human urine; cited from earlier work

SMILES	Acceptable Crossreactivity [1] [%]	Share of urinary 5-HTOL conjugated with glucuronic acid [2]
O=C(O)Cc1c[nH]c2ccc(O)cc12 [5-HIAA, 5-hydroxyindole-3-acetic acid]	≤ 0.07	
N[C@@H](Cc1c[nH]c2ccc(O)cc12)C(=O)O [5-hydroxytryptophan]	≤ 0.1	
COc1ccc2[nH]cc(CCN)c2c1 [5-methoxytryptamine]	≤ 5	
COc1ccc2[nH]cc(CCO)c2c1 [5-methoxytryptophol]	≤ 5	
O=C(O)[C@H]1O[C@@H](Oc2ccc3[nH]cc(CCO)c3c2)[C@H](O)[C@@H](O)[C@@H]1O [T-5-G, 3-(2-hydroxyethyl)indole-5-yl-O-β-D-glucopyranosiduronic acid]		75-95%
C[C@]12CC[C@@H]3c4ccc(O[C@@H]5O[C@H](C(=O)O)[C@@H](O)[C@H](O)[C@H]5O)cc4CC[C@H]3[C@@H]1CCC2=O [estrone-β-D-glucuronide]	≤ 50	
O=Cc1c[nH]c2ccccc12 [indole-3-aldehyde]	≤ 0.05	
O=C(O)Cc1c[nH]c2ccccc12 [indolyl acetic acid]	≤ 0.07	
O=S(=O)(O)Oc1c[nH]c2ccccc12 [indoxyl sulphate]	≤ 0.002	
O=C(O)[C@H]1O[C@@H](Oc2c[nH]c3ccccc23)[C@H](O)[C@@H](O)[C@@H]1O [indoxyl-β-D-glucuronide]	≤ 0.002	
COc1ccc2[nH]cc(CCNC(C)=O)c2c1 [melatonin]	≤ 50	
O=C(O)[C@H]1O[C@@H](Oc2ccc([N+](=O)[O-])cc2)[C@H](O)[C@@H](O)[C@@H]1O [p-nitrophenyl-β-D-glucuronide]	≤ 0.002	
NCCc1c[nH]c2ccc(O)cc12 [serotonin, 5-hydroxytryptamine]	≤ 7	
CC12CCC(=O)C=C1CCC1C2CCC2(C)C(OC3OC(C(=O)O)C(O)C(O)C3O)CCC12 [testosterone-β-D-glucuronide]	≤ 50	
NCCc1c[nH]c2ccccc12 [tryptamine]	≤ 6	
N[C@@H](Cc1c[nH]c2ccccc12)C(=O)O [tryptophan]	≤ 0.6	
